Results taken from patent US20240309360A1, “TRANS-ACTIVATORS AND METHODS AND USE THEREOF” (THE GOVERNING COUNCIL OF THE UNIVERSITY OF TORONTO, priority 2021, published 2024).

Test system: EGFP reporter (7×TetO array, basal CMV promoter) in HEK293T reporter cell line
Experiment: TAD-seq pooled activation screen of 60-aa fragments fused to PYL1
Type: cell-based, human
Conditions: for Hit high GFP: high GFP population (top 1%); for logFC high GFP / logFC medium GFP: log 2 fold change of counts, 100 μM ABA 48 hours; for logFC high GFP: sorted high GFP cells (top 1%) vs unsorted cells; for logFC medium GFP: sorted medium GFP cells (top 2-5%) vs unsorted cells; for Hit medium GFP: medium GFP population (top 2-5%); call rule not given here
Text: A fragment library of 75 activators identified in our screen was generated, using 60 amino-acid tiles every 20 aa such that every amino acid was represented by three different fragments (FIG. 3A). The pooled fragment library was fused to PYL1 and recruited to the same GFP reporter used in the original ORFeome screen (FIG. 3A). […] The GFP positive population was sorted into two independent replicates, and fragments in each population were quantified by sequencing. However, in contrast to the ORFeome screen, both high GFP cells (top 1%) and medium GFP cells (top 2-5%) were sorted to potentially identify transactivators of different strength.
Activation domain tiling library generation. A tiling library was generated from 75 proteins identified as activators in the ORFeome screen. Oligonucleotides containing a 5′ adapter […] (SEQ ID NO: 23) and a 3′ adapter […] (SEQ ID NO: 24) to generate a 5′ adapter ([…]) (SEQ ID NO: 11) and a 3′ adapter ([…]) (SEQ ID NO: 12) were synthesized as pooled libraries (Twist Biosciences). 6×50 μl PCR reactions were set up using NEBNext Ultra II Q5 master mix (New England Biolabs) with 5 nM oligos as template. PCR conditions were optimized to find the lowest cycle with a clean visible product at the expected 300 bp length. The thermocycling condition was an initial 30 s at 98° C., then 2 cycles of 98° C. for 10 s, 63° C. for 20 s, and 72° C. for 15 s, followed by 10 more cycles of 98° C. for 10 s and 72° C. for 30 s with a final extension at 72° C. for 5 min. Primers were designed to have Gateway compatible flanking sequences. The resulting libraries were gel extracted by QIAgen gel extraction kit after loading on a 2% TAE gel for 2 hrs at 60V and subsequently cloned into pDONR221 using 20 separate BP reactions in total of 5 μl reactions. The entry plasmid pool was transformed after an overnight reaction into DHSalpha competent E. coli and incubated overnight on LB agar plates containing kanamycin ([…]). Colonies were collected and plasmid DNA purified. 20 LR reactions were then set up as described in the previous section. Each reaction was transformed into NEB 10-beta chemically competent E. coli and grown on LB agar plates containing carbenicillin ([…]) overnight at 30° C. Colonies were counted to ensure >200-fold coverage at each step of cloning, pooled and maxiprepped.
Pooled activation screens. ORFeome and transactivation tiling libraries tagged at the C-terminus with PYL1 were packaged into lentiviral particles. A clonal EGFP reporter cell line stably co-expressing ABI-dCas9 and a gRNA targeting the promoter were transduced at low multiplicity of infection (MOI) with approximately 30% cell survival after puromycin (1 μg/mL) selection. Untransduced cells under the same condition were fully eliminated. Sufficient cells were transduced to maintain >500 fold coverage of the libraries. Recruitment was induced by treating cells with 100 μM abscisic acid (ABA, Sigma) for 48 hours. In parallel, a control batch of cells were treated with equal total volume of DMSO. Cells were then washed in PBS, treated with dissociation buffer (1 mM EDTA, 10 mM KCl, 150 mM NaCl, 5 mM sodium bicarbonate, 0.1% glucose) and resuspended in flow buffer (5 mM EDTA, 25 mM HEPES pH 7, 1% BSA, PBS). High GFP population for each library, top 1% for ORFeome and two bins of top 1% and the next 4% for the TAD screen, were sorted and their genomic DNA directly extracted using QIAmp DNA Blood Mini Kit (QIAGEN).
TAD sequencing. Performed nested PCR on the purified genomic DNA using primers targeting T7 promoter and PYL1 of the backbone vector in the first step creating a ˜470 bp product. Products of the first reaction were then pooled and amplified for an additional 10 steps using primers targeting outside the Gateway sites creating a ˜300 bp product. Libraries were quantified on Qubit dsDNA Broad Range kit and paired-end sequenced on an Illumina MIseq with a custom PAGE-purified R1 sequencing primer. […]

Row | Substance | Hit high GFP | logFC high GFP | logFC medium GFP | Hit medium GFP
1 | FAM90A1-19: 60-aa TAD-seq fragment of FAM90A1 (RQPPHSRPCLPTAQACTMSHHPAASHDGAQPLRVLFRRLENGRWSSSLLTAPSFHSPEKP; listed as Homo sapiens) | hit | 2.051 | 1.557 | hit
2 | HOXA2-4: 60-aa TAD-seq fragment of HOXA2 (PGSHPRHGAGGRPKPSPAGSRGSPVPAGALQPPEYPWMKEKKAAKKTALLPAAAAAATAA; listed as Homo sapiens) | – | 1.664 | 1.595 | hit
3 | HOXA2-5: 60-aa TAD-seq fragment of HOXA2 (RGSPVPAGALQPPEYPWMKEKKAAKKTALLPAAAAAATAAATGPACLSHKESLEIADGSG; listed as Homo sapiens) | – | 1.684 | 2.311 | hit
4 | HOXA2-6: 60-aa TAD-seq fragment of HOXA2 (KKAAKKTALLPAAAAAATAAATGPACLSHKESLEIADGSGGGSRRLRTAYTNTQLLELEK; listed as Homo sapiens) | – | 1.951 | 1.738 | hit
5 | HSF1-20: 60-aa TAD-seq fragment of HSF1 (KNELSDHLDAMDSNLDNLQTMLSSHGFSVDTSALLDLFSPSVTVPDMSLPDLDSSLASIQ; listed as Homo sapiens) | – | 0.6234 | 0.7077 | hit
6 | HSF1-21: 60-aa TAD-seq fragment of HSF1 (MLSSHGFSVDTSALLDLFSPSVTVPDMSLPDLDSSLASIQELLSPQEPPRPPEAENSSPD; listed as Homo sapiens) | – | 0.432 | 0.8992 | hit
7 | HSF1-24: 60-aa TAD-seq fragment of HSF1 (SGKQLVHYTAQPLFLLDPGSVDTGSNDLPVLFELGEGSYFSEGDGFAEDPTISLLTGSEP; listed as Homo sapiens) | – | 0.6763 | 0.8092 | hit
8 | HSF1-25: 60-aa TAD-seq fragment of HSF1 (AQPLFLLDPGSVDTGSNDLPVLFELGEGSYFSEGDGFAEDPTISLLTGSEPPKAKDPTVS; listed as Homo sapiens) | – | 0.7725 | 1.153 | hit
9 | JAZF1-1: 60-aa TAD-seq fragment of JAZF1 (MTGIAAASFFSNTCRFGGCGLHFPTLADLIEHIEDNHIDTDPRVLEKQELQQPTYVALSY; listed as Homo sapiens) | – | 0.2848 | 0.6639 | hit
10 | KLF6-1: 60-aa TAD-seq fragment of KLF6 (MDVLPMCSIFQELQIVHETGYFSALPSLEEYWQQTCLELERYLQSEPCYVSASEIKFDSQ; listed as Homo sapiens) | hit | 5.453 | 1.868 | hit
11 | KLF7-2: 60-aa TAD-seq fragment of KLF7 (YFSALPSLEETWQQTCLELERYLQTEPRRISETFGEDLDCFLHASPPPCIEESFRRLDPL; listed as Homo sapiens) | – | 1.431 | 1.165 | hit
12 | KLF15-6: 60-aa TAD-seq fragment of KLF15 (GPVAWGPWRRAAAPVKGEHFCLPEFPLGDPDDVPRPFQPTLEEIEEFLEENMEPGVKEVP; listed as Homo sapiens) | hit | 2.467 | 1.202 | hit
13 | LIN9-25: 60-aa TAD-seq fragment of LIN9 (SRLTAILLQIKCLAEGGDLNSFEFKSLTDSLNDIKSTIDASNISCFQNNVEIHVAHIQSG; listed as Homo sapiens) | hit | 2.094 | 1.08 | –
14 | MYCBP-1: 60-aa TAD-seq fragment of MYCBP (MAHYKAADSKREQFRRYLEKSGVLDTLTKVLVALYEEPEKPNSALDFLKHHLGAATPENP; listed as Homo sapiens) | – | 1.017 | 0.73 | hit
15 | MYCL1-1: 60-aa TAD-seq fragment of MYCL1 (MDYDSYQHYFYDYDCGEDFYRSTAPSEDIWKKFELVPSPPTSPPWGLGPGAGDPAPGIGP; listed as Homo sapiens) | – | 1.137 | 0.7968 | hit
16 | MYOD1-2: 60-aa TAD-seq fragment of MYOD1 (CSFATTDDFYDDPCFDSPDLRFFEDLDPRLMHVGALLKPEEHSHFPAAVHPAPGAREDEH; listed as Homo sapiens) | – | 0.7025 | 0.8486 | hit
17 | NEUROD1-6: 60-aa TAD-seq fragment of NEUROD1 (LRRMKANARERNRMHGLNAALDNLRKVVPCYSKTQKLSKIETLRLAKNYIWALSEILRSG; listed as Homo sapiens) | – | 0.6708 | 0.9533 | hit
18 | NEUROG3-5: 60-aa TAD-seq fragment of NEUROG3 (RRSRRKKANDRERNRMHNLNSALDALRGVLPTFPDDAKLTKIETLRFAHNYIWALTQTLR; listed as Homo sapiens) | – | 0.06039 | 0.6713 | hit
19 | NPAS4-31: 60-aa TAD-seq fragment of NPAS4 (DVPLVPEGLLTPEASPVKQSFFHYSEKEQNEIDRLIQQISQLAQGMDRPFSAEAGTGGLE; listed as Homo sapiens) | – | 1.22 | 0.8563 | hit
20 | NPAS4-34: 60-aa TAD-seq fragment of NPAS4 (PLGGLEPLDSNLSLSGAGPPVLSLDLKPWKCQELDFLADPDNMFLEETPVEDIFMDLSTP; listed as Homo sapiens) | – | 0.946 | 0.9186 | hit
21 | NPAS4-36: 60-aa TAD-seq fragment of NPAS4 (DNMFLEETPVEDIFMDLSTPDPSEEWGSGDPEAEGPGGAPSPCNNLSPEDHSFLEDLATY; listed as Homo sapiens) | – | 0.671 | 1.209 | hit
22 | NPAS4-37: 60-aa TAD-seq fragment of NPAS4 (DPSEEWGSGDPEAEGPGGAPSPCNNLSPEDHSFLEDLATYETAFETGVSAFPYDGFTDEL; listed as Homo sapiens) | hit | 1.645 | 0.7019 | –
23 | NPAS4-39: 60-aa TAD-seq fragment of NPAS4 (CNNLSPEDHSFLEDLATYETAFETGVSAFPYDGFTDELHQLQSQVQDSFHEDGSGGEPTF; listed as Homo sapiens) | – | 0.798 | 0.7684 | hit
24 | RELB-2: 60-aa TAD-seq fragment of RELB (RRVARPPAAPELGALGSPDLSSLSLAVSRSTDELEIIDEYIKENGFGLDGGQPGPGEGLP; listed as Homo sapiens) | hit | 2.147 | 1.711 | hit
25 | RELB-3: 60-aa TAD-seq fragment of RELB (SSLSLAVSRSTDELEIIDEYIKENGFGLDGGQPGPGEGLPRLVSRGAASLSTVTLGPVAP; listed as Homo sapiens) | hit | 1.768 | 1.803 | hit
